Laboratory results: patent publication US11154210B2, “Method of determining vasoreactivity using inhaled nitric oxide” (VERO BIOTECH LLC, priority 2011, dated 2021)
Values joined by “and” are separate entries in the source; they are usually repeats but may differ in a detail not shown here. Equal entries are not always repeated.

Assays:
[1] = tested on: patients with pulmonary arterial hypertension; experiment: Inhaled nitric oxide vasodilator challenge during right heart catheterization, retrospective review of prostacyclin wean/transition cases; format: in vivo, human
Description: Inhaled nitric oxide (NO) can be administered during right heart catheterization (RHC) to evaluate and characterize pulmonary hemodynamics following long term parenteral prostacyclin therapy and can provide information that may influence the choice of treatment strategies for these patients. These treatment strategies may involve changing vasodilator therapy, eligibility for lung and/or heart transplantation, or changes in prognosis. Inhaled nitric oxide can be a potent, selective pulmonary vasodilator agent and has been well studied up to 80 ppm. It is expected that inhaled nitric oxide as a diagnostic agent during RHC may be useful for facilitating patient management strategies and provide clinical information beneficial to patient care.
An aim of the project was to collect and review the existing data from centers experienced with the practice of transition from parenteral prostacyclins to an alternative therapy. The review was conducted to determine if a population could be characterized based on the hemodynamic response using inhaled nitric oxide during right heart catheterization. A primary objective of the project was to determine the correlation, if any, between the return of pulmonary vascular reactivity following parenteral prostacyclin therapy and the ability of the patient to transition from parenteral prostacyclins to an alternative therapy. Secondary objectives included the exploration of clinical characteristics of a patient population with a documented wean or transition from parenteral prostacyclins, as well as evaluating any change in clinical impression.
To date seven sites have contributed to the data set collected for a total of 47 baseline visits, and 246 follow-up visits. There are five failed weans and seven late failures. Data was available to review for 40 cases entered. No statistical analysis was performed and reviews completed were descriptive in order to identify any shared characteristics in the population either as a success, failure or late failure.
Three cases, where nitric oxide re-challenge data was available at the time of subject wean, are represented in Table 2.
The lack of correlation between the clinical findings and the ECHO data prompted review of the data. Baseline hemodynamics, wean hemodynamics and echocardiography data were reviewed for all the failed transitions. […] In each case, where echocardiography data was available and right ventricular enlargement was indicated and/or right ventricular dysfunction was indicated, a failed wean or late failure was common.

[2] = tested on: patients with pulmonary arterial hypertension; settings: epoprostenol therapy, 27 consecutive patients; cited from earlier work
[3] = tested on: patients with pulmonary arterial hypertension; settings: active group (n=41), 12 weeks; cited from earlier work
[4] = failed wean/late failure cases, Time of Wean

Compound | acute vasodilator response (fall in PAPm of >10 mm Hg to <40 mm Hg) ([1]; all three cases of Table 2) | change in PAPm ([1]; all three cases of Table 2, nitric oxide challenge at time of wean) | NO CO ([1]; cardiac output on nitric oxide challenge at time of wean, one patient case per table row) | change in CO ([1]; case of the failed transition) | change in PVR ([1]; case of the failed transition) | WN NO CO [1, 4] | WN NO PAPm [1, 4] | WN NO PVR [1, 4] | NO PAPm ([1]; mean pulmonary arterial pressure on nitric oxide challenge at time of wean, one patient case per table row) | NO PVR ([1]; pulmonary vascular resistance on nitric oxide challenge at time of wean, one patient case per table row) | cardiac output increased [2] | mean pulmonary artery pressure declined [2] | pulmonary vascular resistance declined [2] | average decline in mean pulmonary arterial pressure [3] | decline in pulmonary vascular resistance [3]
[N]=O [NO, nitric oxide] | failed to meet the criteria | only a modest decrease | 5.2 and 7.8 and 4.77 | marked increase | minimal decrease | 5.2 | 49 | 8.3 | 49 and 48 and 70 | 8.3 and 3.8 and 14.4 | – | – | – | – | –
CCCCC[C@H](O)/C=C/[C@@H]1[C@H]2C/C(=C/CCCC(=O)O)O[C@H]2C[C@H]1O [epoprostenol] | – | – | – | – | – | – | – | – | – | – | 67% | 22% | 53% | 8% | 21%
